Here are results for 6 compounds from US20250129021A1, “SMALL MOLECULE PROTEIN SYNTHESIS MODULATORS” (Interdict Bio, Inc., priority 2023, published 2025).

The structures appear in SMILES notation. Like-named read-outs stand apart in the source and are kept apart here.

Test [1] deals with MCL-1. As to the kind of experiment: In vitro transcription-translation (IVTT) assay, MCL-1 reporter. To be noted: HeLa S3 lysate, 2 hrs at 30° C. The test is classed as biochemical. A digest of the protocol:
(§1)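 Reporter: mCherry, P2A, then 3×FLAG-target peptide-sfGFP fusion, IRES-initiated; HeLa S3 lysate IVTT; cpd dilutions 30 μM−0.1 μM half-log in 100% DMSO (dilution-plate conc); DNA added last; 2 h, 30° C; PBS quench.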

For test [2], the system named is MYC. Briefly: In vitro transcription-translation (IVTT) assay, MYC reporter. It is filed as biochemical. To be noted: HeLa S3 lysate, 2 hrs at 30° C. A digest of the protocol:
as §1

The subject of test [3] is cGAS. Briefly: In vitro transcription-translation (IVTT) assay, cGAS reporter. The test is classed as biochemical. The note with it: HeLa S3 lysate, 2 hrs at 30° C. The procedure:
(§2) Each preparation takes 8 cell pellets (4 ml packed volume each, approximately 1.0×10^9 cells per pellet). Thaw cell pellets from −80° C. on ice for 90 mins. Lay pellets horizontally on top of the ice and rotate every 30 mins to ensure even thawing. Once thawed, add 4 mL of cold lysis buffer to each pellet, and using a serological pipet, gently pipet up and down to break up clumps. Incubate resuspended cells in ice for an additional 30 mins (plunged into ice). During 30 min incubation, rinse and RNase-zap (Ambion) glass dounces (use loose pestle “A”), gently dry and place on ice until needed. Prepare RNase-free Eppendorf tubes for spinning and for batch storage. […]
(§3) In vitro transcription-translation assay setup: Each assay includes a master mix containing lysate and shared components, a 96-well plate containing compound titrations for testing, a 96-well DNA plate with reporter constructs to be tested, 96-well skirted PCR plates, and 96-well flat-bottom, black, fluorescent assay plates. […] After 2 hrs, quench the assay using 45 μL of PBS, and transfer 50 μL to a flat-bottom black microplate Quantify the sfGFP and mCherry signals from each well on each plate, taking 3 reads of each plate, and perform data analysis below.
(§4) In vitro transcription-translation assay data analysis: Each plate is read three times in channels for both sfGFP and mCherry signals. […]

Test [4] has as its system NFKB1. Briefly: In vitro transcription-translation (IVTT) assay, NFKB1 reporter. It is filed as biochemical. To be noted: HeLa S3 lysate, 2 hrs at 30° C. The procedure: as §2, §3, §4
The test system of test [5] is CCND1. As to the kind of experiment: In vitro transcription-translation (IVTT) assay, CCND1 reporter. It is filed as biochemical. To be noted: HeLa S3 lysate, 2 hrs at 30° C. A digest of the protocol: as §1
Test [6] has as its system STING. Briefly: In vitro transcription-translation (IVTT) assay, STING reporter. The note with it: HeLa S3 lysate, 2 hrs at 30° C. The test is classed as biochemical. On the procedure:
as §2, §3, §4

The subject of test [7] is JAK1. As to the kind of experiment: In vitro transcription-translation (IVTT) assay, JAK1 reporter. It is filed as biochemical. The note with it: HeLa S3 lysate, 2 hrs at 30° C. On the procedure:
as §2, §3, §4

For test [8], the system named is CCNTB1. As to the kind of experiment: In vitro transcription-translation (IVTT) assay, CCNTB1 reporter. It is filed as biochemical. To be noted: HeLa S3 lysate, 2 hrs at 30° C. The procedure, abridged:
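IC50 fitted from the sfGFP/mCherry fluorescence ratio, normalized to no-drug control after no-DNA background subtraction. Reactions ran 2 h at 30° C in HeLa S3 cell lysate with reporter plasmid DNA and half-log compound titrations (30 μM−0.1 μM, in DMSO).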

For test [9], the system named is KLE. Briefly: Cell viability (CellTiter-Fluor), KLE. It is filed as cell-based. To be noted: Homo sapiens, 24-72 hrs. The procedure: (§5) Count and dispense 2,000-10,000 cells per well (100 μL volume) in black 96-well tissue culture microplate and let cells adhere overnight. Add compound dissolved in 100% DMSO to each well as needed and incubate cells in standard culture conditions for 24-72 hrs. Final DMSO concentration in each well should be 0.1-0.5%. At the desired time point, gently aspirate compound containing media and replace with PBS to wash. Repeat wash step for 2 total washes. Remove PBS and add 100 μL CellTiter-Fluor reagent (Promega) reagent to each well. Seal plate and incubate 1 hr at room temperature with orbital shaking. Analyze fluorescence using plate reader to quantify viable cells compared with vehicle (DMSO) control.

The subject of test [10] is MS751. Briefly: Cell viability (CellTiter-Fluor), MS751. It is filed as cell-based. The note with it: 24-72 hrs. The procedure: as §5
Test [11] concerns T47D. Briefly: Cell viability (CellTiter-Fluor), T47D. It is filed as cell-based. To be noted: Homo sapiens, 24-72 hrs. On the procedure: as §5
The subject of test [12] is HCC38. Briefly: Cell viability (CellTiter-Fluor), HCC38. It is filed as cell-based. The note with it: Homo sapiens, 24-72 hrs. The procedure: as §5
In test [13] the test system is MCF7. As to the kind of experiment: Cell viability (CellTiter-Fluor), MCF7. It is filed as cell-based. To be noted: Homo sapiens, 24-72 hrs. The procedure: as §5
The subject of test [14] is KRAS G12D. As to the kind of experiment: In vitro transcription-translation (IVTT) assay, KRAS G12D reporter. The note with it: HeLa S3 lysate, sfGFP/mCherry ratio, 2 hrs at 30° C. The test is classed as biochemical. A digest of the protocol: as §1
Test [15] relates to LS411N. As to the kind of experiment: Cell viability (CellTiter-Fluor), LS411N. The test is classed as cell-based. To be noted: Homo sapiens, LS-411N, 24-72 hrs. The procedure: as §5
The test system of test [16] is ALK. Briefly: In vitro transcription-translation (IVTT) assay, ALK reporter. It is filed as biochemical. The note with it: HeLa S3 lysate, sfGFP/mCherry ratio, 2 hrs at 30° C. The procedure, abridged: as §1
Test [17] concerns NCI-H1915. As to the kind of experiment: Cell viability (CellTiter-Fluor), NCI-H1915. It is filed as cell-based. The note with it: 24-72 hrs. On the procedure:
as §5

In test [18] the test system is HPAF-II. As to the kind of experiment: Cell viability (CellTiter-Fluor), HPAF-II. The test is classed as cell-based. The note with it: Homo sapiens, 24-72 hrs. On the procedure:
as §5

In test [19] the test system is KATO-III. Briefly: Cell viability (CellTiter-Fluor), KATO-III. To be noted: Homo sapiens, 24-72 hrs. It is filed as cell-based. The procedure: as §5
For test [20], the system named is HEK 293T. As to the kind of experiment: Cell viability (CellTiter-Fluor), HEK 293T. The test is classed as cell-based. To be noted: Homo sapiens, 24-72 hrs. The procedure:
as §5

Test [21] has as its system HEPG2. As to the kind of experiment: Cell viability (CellTiter-Fluor), HEPG2. The test is classed as cell-based. To be noted: Homo sapiens, 24-72 hrs. On the procedure: as §5
In test [22] the test system is BCL-2. As to the kind of experiment: In vitro transcription-translation (IVTT) assay, BCL-2 reporter. The test is classed as biochemical. To be noted: HeLa S3 lysate, sfGFP/mCherry ratio, 2 hrs at 30° C. A digest of the protocol:
as §1

[23] abbreviates: IVTT assay, MYC reporter, normalized sfGFP/mCherry ratio, half-log dilutions 30 μM-0.1 μM.

As to `O=C(NCc1ccccc1)O[C@@H]1[C@@H](O)CN[C@@H]1Cc1ccc(-c2ccc3c(c2)CNC3)cc1` [V188347, (2R,3S,4S)-2-{[4-(2,3-dihydro-1H-isoindol-5-yl)phenyl]methyl}-4-hydroxypyrrolidin-3-yl N-benzylcarbamate], the IC50 (usually the concentration at which inhibition is half-maximal) in test [1] (IVTT, read-out: MCL1 IC50) was less than 10 µM; in [2] (setting [23]), less than 10 µM; in test [3], less than 10 µM; in test [4], less than 10 µM; in test [5] (IVTT) it was less than 10 µM; in test [6], less than 10 µM. Further, the IC50 in test [7] and in [8] was less than 10 µM in each case.

Turning to `COc1ccc(C[C@H]2NC[C@H](O)[C@H]2OC(=O)NCc2c[nH]nn2)cc1` [V187536, (2R,3S,4S)-4-hydroxy-2-[(4-methoxyphenyl)methyl]pyrrolidin-3-yl N-(1H-1,2,3-triazol-4-ylmethyl) carbamate; trifluoroacetic acid], the IC50 in test [9] is 1000 to 4000 nM; in test [1] (sfGFP/mCherry ratio) it was less than 10 µM; in test [10], 250 to 1000 nM; in test [11] it was 1000 to 4000 nM; in [12], 1000 to 4000 nM; in [2] (sfGFP/mCherry ratio) it was less than 10 µM. Besides, the IC50 in test [13] is 1000 to 4000 nM; in test [5] (sfGFP/mCherry ratio), less than 10 µM; in test [14], less than 10 µM; in test [15] it was 1000 to 4000 nM; in test [16], less than 10 µM; in test [17], 1000 to 4000 nM. Further, the IC50 was in the range of 1000 to 4000 nM in [18], 1000 to 4000 nM in test [19], 250 to 1000 nM in [20] and 1000 to 4000 nM in test [21].

Turning to `COc1ccc(C[C@H]2NC[C@H](O)[C@H]2OC(=O)NCCc2cn[nH]c2)cc1` [V187509, (2R,3S,4S)-4-hydroxy-2-[(4-methoxyphenyl)methyl]pyrrolidin-3-yl N-[2-(1H-pyrazol-4-yl)ethyl]carbamate], the IC50 in test [9] was 250 to 1000 nM; in test [1] (sfGFP/mCherry ratio), less than 10 µM; in test [10], less than 250 nM; in [11], 250 to 1000 nM; in [12] it was 250 to 1000 nM; in test [2] (sfGFP/mCherry ratio) it was less than 10 µM. Besides, the IC50 in test [13] was 250 to 1000 nM; in test [5] (sfGFP/mCherry ratio), less than 10 µM; in test [22], less than 10 µM; in [14], less than 10 µM; in test [15], 250 to 1000 nM; in test [17] it was 250 to 1000 nM. Also, the IC50 is 250 to 1000 nM in test [18], 250 to 1000 nM in [19], less than 250 nM in test [20] and 1000 to 4000 nM in [21].

Turning to `COc1ccc(C[C@H]2NC[C@H](O)[C@H]2OC(=O)NCc2ccncc2)cc1` [V187987, (2R,3S,4S)-4-hydroxy-2-[(4-methoxyphenyl)methyl]pyrrolidin-3-yl N-(pyridin-4-ylmethyl)carbamate], the IC50 is 250 to 1000 nM in [9]; less than 10 µM in test [1] (sfGFP/mCherry ratio); 250 to 1000 nM in test [10]; less than 250 nM in test [11]; 250 to 1000 nM in [12]; less than 10 µM in test [2] (sfGFP/mCherry ratio). In addition, the IC50 in test [13] was less than 250 nM; in test [5] (sfGFP/mCherry ratio), less than 10 µM; in test [22], less than 10 µM; in test [15], less than 250 nM; in test [17] it was less than 250 nM; in test [18], 250 to 1000 nM. Besides, the IC50 in test [19] is 250 to 1000 nM; in [20], less than 250 nM; in test [21] it was 1000 to 4000 nM.

With `O=C(NCc1cccc(F)c1)O[C@@H]1[C@@H](O)CN[C@@H]1Cc1ccc(-c2cnco2)cc1` [V190545, (2R,3S,4S)-4-hydroxy-2-{[4-(1,3-oxazol-5-yl)phenyl]methyl}pyrrolidin-3-yl N-[(3-fluorophenyl)methyl]carbamate], the IC50 was less than 10 µM in test [1] (IVTT, read-out: MCL1 IC50); less than 10 µM in test [2] (setting [23]); less than 10 µM in [3]; less than 10 µM in test [5] (IVTT); less than 10 µM in [6]; less than 10 µM in test [7]. Also, the IC50 in test [8] is less than 10 µM.

As for `COc1ccc(C[C@H]2NC[C@H](O)[C@H]2OC(=O)NCc2ccccc2)cc1` [V187190, (2R,3S,4S)-4-hydroxy-2-[(4-methoxyphenyl)methyl]pyrrolidin-3-yl N-benzylcarbamate; trifluoroacetic acid], the 50% inhibitory concentration (IC50) is less than 250 nM in test [9]; less than 10 µM in test [1] (sfGFP/mCherry ratio); less than 250 nM in test [10]; less than 250 nM in [11]; 250 to 1000 nM in test [12]; less than 10 µM in [2] (sfGFP/mCherry ratio). Moreover, the IC50 is less than 250 nM in test [13]; less than 10 µM in test [5] (sfGFP/mCherry ratio); less than 10 µM in test [22]; less than 10 µM in [14]; less than 250 nM in test [15]; less than 10 µM in [16]. The IC50 was less than 250 nM in test [17]; 250 to 1000 nM in test [18]; less than 250 nM in [19]; less than 250 nM in [20]; less than 250 nM in [21].
